Target: T1, PERK (Homo sapiens, UniProt Q9NZJ5)
T1 sequence (Q9NZJ5 30-1116): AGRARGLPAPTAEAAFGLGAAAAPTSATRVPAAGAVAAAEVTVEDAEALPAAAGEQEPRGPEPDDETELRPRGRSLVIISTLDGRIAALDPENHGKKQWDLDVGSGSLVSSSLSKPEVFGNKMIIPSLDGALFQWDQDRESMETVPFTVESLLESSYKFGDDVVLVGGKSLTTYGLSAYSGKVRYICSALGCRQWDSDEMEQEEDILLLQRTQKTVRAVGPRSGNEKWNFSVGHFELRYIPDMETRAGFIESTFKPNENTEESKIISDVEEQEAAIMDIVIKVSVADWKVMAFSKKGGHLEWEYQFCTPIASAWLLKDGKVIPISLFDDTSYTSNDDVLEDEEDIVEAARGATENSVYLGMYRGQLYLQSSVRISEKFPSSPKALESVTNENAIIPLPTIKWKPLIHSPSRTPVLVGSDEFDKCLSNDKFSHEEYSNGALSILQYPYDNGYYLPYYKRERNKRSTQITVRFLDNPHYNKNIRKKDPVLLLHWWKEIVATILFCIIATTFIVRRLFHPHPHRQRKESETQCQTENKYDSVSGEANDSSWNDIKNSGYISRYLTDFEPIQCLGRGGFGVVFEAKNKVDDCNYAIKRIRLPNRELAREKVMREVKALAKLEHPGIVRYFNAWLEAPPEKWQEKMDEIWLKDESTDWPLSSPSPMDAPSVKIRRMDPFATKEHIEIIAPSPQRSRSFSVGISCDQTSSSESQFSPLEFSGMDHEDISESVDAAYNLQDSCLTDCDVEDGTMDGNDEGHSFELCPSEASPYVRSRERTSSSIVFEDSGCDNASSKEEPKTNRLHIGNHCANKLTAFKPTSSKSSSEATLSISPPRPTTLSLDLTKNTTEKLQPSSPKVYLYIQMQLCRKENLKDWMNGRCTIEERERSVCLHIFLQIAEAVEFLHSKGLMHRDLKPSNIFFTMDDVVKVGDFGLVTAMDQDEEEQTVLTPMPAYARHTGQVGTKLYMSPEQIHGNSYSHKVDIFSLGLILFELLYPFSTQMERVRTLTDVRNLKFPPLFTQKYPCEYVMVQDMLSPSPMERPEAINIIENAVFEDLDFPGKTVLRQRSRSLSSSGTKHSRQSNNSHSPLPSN
Assay: PERK enzyme assay (HTRF)
Assay type: biochemical
Conditions: PERK Enzyme (500 μM ATP) IC50; at least one experimental run; read-out: PERK Activity
Method: Compounds of the invention were assayed for PERK enzyme inhibitory activity with modifications to previously reported conditions (Axten et al. J. Med. Chem., 2012, 55, 7193-7207). Briefly, various concentrations of compounds (maximum 1% DMSO) were dispensed into 384-well plates containing GST-PERK enzyme. After 30-60 minutes of compound pre-incubation, ATP and biotin-eIF2α were added and after 60 minutes the reaction was quenched. After 2 hrs, a fluorescence plate reader was used to measure inhibition and IC50s were calculated.
Enzyme Assay Protocol for PKR-Like Endoplasmic Reticulum Kinase (PERK)—HTRF —% Inhibition
Assay Buffer contains HEPES (pH7.5) 10 mM, CHAPS 2 mM, MgCl2 5 mM and DTT 1 mM in water
Detection Buffer contains HEPES (pH7.5) 10 mM and CHAPS 2 mM in water Assay Plate Preparation:
1. Enzyme Preparation: • 4× Enzyme solution was prepared immediately prior to adding to compound plates. • 3 nM of GST-PERK in Assay buffer. Final [PERK] in 10 μl assay volume=0.75 nM
2. Substrate Preparation: • 4× Substrate solution was prepared immediately prior to adding to compound plates. • 4× Substrate solution in assay buffer 2000 μM ATP and 160 nM Biotin-eIF2α • Final [ATP] in 10 μl assay volume=500 μM • Final [biotin-eIF2a] in 10 μl assay volume=40 nM.
3. Quench/Detection Solution: • 16 nM eIF2 Phospho-Antibody • 16 nM Eu anti-Rabbit IgG • 160 nM Streptavidin-APC • 60 mM EDTA • Final concentration in 10 μL assay volume: 4 nM eIF2 Phospho-Antibody, 4 nM Eu anti-Rabbit IgG 40 nM Streptavidin-APC
The activity of compounds in the PERK enzyme assay was determined at PERK Enzyme (500 μM ATP) IC50 (nM).

SMILES	IC50 [nM]
CN1C(=O)N(c2ccc(-c3cn(C4CC4)c4ncnc(N)c34)c(F)c2)CC1c1cc(F)c(F)cc1F (stereo not drawn) [Example 157, 1-(4-(4-amino-7-cyclopropyl-7H-pyrrolo[2,3-d]pyrimidin-5-yl)-3-fluorophenyl)-3-methyl-4-(2,4,5-trifluorophenyl)imidazolidin-2-one]	< 100
CN1C(=O)N(c2ccc(-c3cn(C)c4ncnc(N)c34)c(F)c2)CC1c1ccc(F)cc1F (single isomer, unassigned) [Example 47, 1-(4-(4-amino-7-methyl-7H-pyrrolo[2,3-d]pyrimidin-5-yl)-3-fluorophenyl)-4-(2,4-difluorophenyl)-3-methylimidazolidin-2-one]	> 1000
CCN1C(=O)N(c2ccc(-c3cn(C)c4ncnc(N)c34)c(F)c2)CC1c1cccc(F)c1F (stereo not drawn) [Example 75, 1-(4-(4-amino-7-methyl-7H-pyrrolo[2,3-d]pyrimidin-5-yl)-3-fluorophenyl)-4-(2,3-difluorophenyl)-3-ethylimidazolidin-2-one]	100 to 1000
CCN1C(=O)N(c2ccc(-c3cn(C4CC4)c4ncnc(N)c34)c(F)c2)CC1c1cc(F)cc(F)c1 (stereo not drawn) [Example 170, 1-(4-(4-amino-7-cyclopropyl-7H-pyrrolo[2,3-d]pyrimidin-5-yl)-3-fluorophenyl)-4-(3,5-difluorophenyl)-3-ethylimidazolidin-2-one]	< 100
CCN1C(=O)N(c2ccc(-c3csc4ncnc(N)c34)c(F)c2)CC1c1cc(F)ccc1F (stereo not drawn) [Example 42, 1-(4-(4-aminothieno[2,3-d]pyrimidin-5-yl)-3-fluorophenyl)-4-(2,5-difluorophenyl)-3-ethylimidazolidin-2-one]	100 to 1000
CN1C(=O)N(c2ccc(-c3cn(C4CC4)c4ncnc(N)c34)c(F)c2)CC1c1ccc(F)cc1 (stereo not drawn) [Example 162, 1-(4-(4-amino-7-cyclopropyl-7H-pyrrolo[2,3-d]pyrimidin-5-yl)-3-fluorophenyl)-4-(4-fluorophenyl)-3-methylimidazolidin-2-one]	< 100
Cn1cc(-c2ccc(N3CC(c4ccc(F)cc4F)N(CC(F)(F)F)C3=O)cc2F)c2c(N)ncnc21 (stereo not drawn) [Example 79, 1-(4-(4-amino-7-methyl-7H-pyrrolo[2,3-d]pyrimidin-5-yl)-3-fluorophenyl)-4-(2,4-difluorophenyl)-3-(2,2,2-trifluoroethyl)imidazolidin-2-one]	< 100
Cc1cccc(C2CC(=O)N(c3ccc(-c4cn(C)c5ncnc(N)c45)c(F)c3)C2)n1 (stereo not drawn) [Example 33, 1-(4-(4-amino-7-methyl-7H-pyrrolo[2,3-d]pyrimidin-5-yl)-3-fluorophenyl)-4-(6-methylpyridin-2-yl)pyrrolidin-2-one]	100 to 1000
CCN1C(=O)N(c2ccc(-c3cn(C4CC4)c4ncnc(N)c34)c(F)c2)CC1c1cc(F)ccc1F (single isomer, unassigned) [Example 124, 1-(4-(4-amino-7-cyclopropyl-7H-pyrrolo[2,3-d]pyrimidin-5-yl)-3-fluorophenyl)-4-(2,5-difluorophenyl)-3-ethylimidazolidin-2-one]	< 100
CCN1C(=O)N(c2ccc(-c3cn(C)c4ncnc(N)c34)c(F)c2)CC1c1cc(F)ccc1F (single isomer, unassigned) [Example 3, 1-(4-(4-amino-7-methyl-7H-pyrrolo[2,3-d]pyrimidin-5-yl)-3-fluorophenyl)-4-(2,5-difluorophenyl)-3-ethylimidazolidin-2-one]	100 to 1000
Cc1nc(N)c2c(-c3ccc(N4CC(c5c(F)ccc(F)c5F)N(C)C4=O)cc3F)cn(C)c2n1 (stereo not drawn) [Example 139, 1-(4-(4-amino-2,7-dimethyl-7H-pyrrolo[2,3-d]pyrimidin-5-yl)-3-fluorophenyl)-3-methyl-4-(2,3,6-trifluorophenyl)imidazolidin-2-one]	100 to 1000
CCN1C(=O)N(c2ccc(-c3cn(C)c4ncnc(N)c34)c(F)c2)CC1c1cccc(C)n1 (stereo not drawn) [Example 50, 1-(4-(4-amino-7-methyl-7H-pyrrolo[2,3-d]pyrimidin-5-yl)-3-fluorophenyl)-3-ethyl-4-(6-methylpyridin-2-yl)imidazolidin-2-one]	100 to 1000
CN1C(=O)N(c2ccc(-c3cn(C4CC4)c4ncnc(N)c34)c(F)c2)CC1c1ccc(F)cc1 (single isomer, unassigned) [Example 163, 1-(4-(4-amino-7-cyclopropyl-7H-pyrrolo[2,3-d]pyrimidin-5-yl)-3-fluorophenyl)-4-(4-fluorophenyl)-3-methylimidazolidin-2-one]	< 100
CCN1C(=O)N(c2ccc(-c3cn(C)c4ncnc(N)c34)c(F)c2)CC1c1cc(F)cc(Cl)c1 (stereo not drawn) [Example 27, 1-(4-(4-amino-7-methyl-7H-pyrrolo[2,3-d]pyrimidin-5-yl)-3-fluorophenyl)-4-(3-chloro-5-fluorophenyl)-3-ethylimidazolidin-2-one]	100 to 1000
Cc1nc(C2CN(c3ccc(-c4cn(C)c5ncnc(N)c45)c(F)c3)C(=O)N2C)ccc1F (stereo not drawn) [Example 112, 1-(4-(4-amino-7-methyl-7H-pyrrolo[2,3-d]pyrimidin-5-yl)-3-fluorophenyl)-4-(5-fluoro-6-methylpyridin-2-yl)-3-methylimidazolidin-2-one]	100 to 1000
CN1C(=O)N(c2ccc(-c3cn(C)c4ncnc(N)c34)c(F)c2)CC1c1cc(F)cc(Cl)c1 (single isomer, unassigned) [Example 51, 1-(4-(4-amino-7-methyl-7H-pyrrolo[2,3-d]pyrimidin-5-yl)-3-fluorophenyl)-4-(3-chloro-5-fluorophenyl)-3-methylimidazolidin-2-one]	< 100
CN1C(=O)N(c2ccc(-c3cn(C)c4ncnc(N)c34)c(F)c2)CC1c1cccnc1 (stereo not drawn) [Example 60, 1-(4-(4-amino-7-methyl-7H-pyrrolo[2,3-d]pyrimidin-5-yl)-3-fluorophenyl)-3-methyl-4-(pyridin-3-yl)imidazolidin-2-one]	< 100
CN1C(=O)N(c2ccc(-c3cn(C)c4ncnc(N)c34)c(F)c2)CC1C1CCCCC1 (stereo not drawn) [Example 58, 1-(4-(4-amino-7-methyl-7H-pyrrolo[2,3-d]pyrimidin-5-yl)-3-fluorophenyl)-4-cyclohexyl-3-methylimidazolidin-2-one]	< 100
CN1C(=O)N(c2ccc(-c3cn(C)c4ncnc(N)c34)c(F)c2)CC1C1CCCCC1 (single isomer, unassigned) [Example 63, 1-(4-(4-amino-7-methyl-7H-pyrrolo[2,3-d]pyrimidin-5-yl)-3-fluorophenyl)-4-cyclohexyl-3-methylimidazolidin-2-one]	< 100
CCN1C(=O)N(c2ccc(-c3cn(CC(F)F)c4ncnc(N)c34)c(F)c2)CC1c1cc(F)ccc1F (stereo not drawn) [Example 17, 1-(4-(4-amino-7-(2,2-difluoroethyl)-7H-pyrrolo[2,3-d]pyrimidin-5-yl)-3-fluorophenyl)-4-(2,5-difluorophenyl)-3-ethylimidazolidin-2-one]	100 to 1000
CCN1C(=O)N(c2ccc(-c3cn(C)c4nc(C)nc(N)c34)c(F)c2)CC1c1cc(F)ccc1F (single isomer, unassigned) [Example 54, 1-(4-(4-amino-2,7-dimethyl-7H-pyrrolo[2,3-d]pyrimidin-5-yl)-3-fluorophenyl)-4-(2,5-difluorophenyl)-3-ethylimidazolidin-2-one]	< 100

Source: patent US20180237441A1, “Chemical Compounds” (GlaxoSmithKline Intellectual Property (No.2) Limited, priority 2015, published 2018)
